The assay concerns the target mutant-MDM2-p53 complex (Homo sapiens, UniProt Q00987, E23G/S22P). The assay can be described thus: Competitive AIDA-NMR antagonist-induced dissociation assay. It is filed as binding. The following applies: compared with the WT-MDM2-p53 complex.

Structures are written as SMILES.

Sequence of mutant-MDM2-p53 complex (Q00987 1-125 S22P/E23G, one chain of several): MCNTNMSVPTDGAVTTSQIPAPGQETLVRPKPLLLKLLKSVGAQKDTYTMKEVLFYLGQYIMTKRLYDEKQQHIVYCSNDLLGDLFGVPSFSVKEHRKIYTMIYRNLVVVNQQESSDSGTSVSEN

With `COc1ccc(C2=N[C@@H](c3ccc(Cl)cc3)[C@@H](c3ccc(Cl)cc3)N2C(=O)N2CCNC(=O)C2)c(OC(C)C)c1` [nutlin-3], the “effectiveness in dissociating the mutant-MDM2-p53 complex” value is listed as “less effective”.

The values are drawn from PMC4104591 (Structure (London, England : 1993), 2013).
